In the assay the test system is T1, Z. jujuba peroxidase (POD IIA).
T1 construct: 56 kDa by gel filtration and SDS-PAGE (single band); EC 1.11.1.7
Kind of assay: absorbance at […] nm, Lineweaver-Burk. The note with it: co-substrate H2O2; 0.05 M sodium acetate pH 5.5; 50 °C; guaiacol 20-90 mM; text prints 23.5 with the units of Km and Vmax interchanged (unit/ml). The assay is classed as biochemical, Ziziphus jujuba.

These results are taken from PMC7224213, “A novel peroxidase from Ziziphus jujuba fruit: purification, thermodynamics and biochemical characterization properties” (Scientific Reports, 2020).

For `COc1ccccc1O` [guaiacol], the Michaelis constant (Km) was found to be 23.5 mM.

For orientation: Km means the substrate concentration at which the rate is half of its maximum.
